ChEMBL document CHEMBL2407087, “Casuarinines A-J, lycodine-type alkaloids from Lycopodiastrum casuarinoides” (J Nat Prod, 2013)
Active and inactive are the calls of the source. No cut-off for these calls is given here.

Key:
[1] = target: T1, Acetylcholinesterase (Rattus norvegicus) (UniProt P37136); experiment: Mixed-type competitive inhibition of rat cortical AChE by Lineweaver-Burke plot analysis
T1 sequence (whole entry): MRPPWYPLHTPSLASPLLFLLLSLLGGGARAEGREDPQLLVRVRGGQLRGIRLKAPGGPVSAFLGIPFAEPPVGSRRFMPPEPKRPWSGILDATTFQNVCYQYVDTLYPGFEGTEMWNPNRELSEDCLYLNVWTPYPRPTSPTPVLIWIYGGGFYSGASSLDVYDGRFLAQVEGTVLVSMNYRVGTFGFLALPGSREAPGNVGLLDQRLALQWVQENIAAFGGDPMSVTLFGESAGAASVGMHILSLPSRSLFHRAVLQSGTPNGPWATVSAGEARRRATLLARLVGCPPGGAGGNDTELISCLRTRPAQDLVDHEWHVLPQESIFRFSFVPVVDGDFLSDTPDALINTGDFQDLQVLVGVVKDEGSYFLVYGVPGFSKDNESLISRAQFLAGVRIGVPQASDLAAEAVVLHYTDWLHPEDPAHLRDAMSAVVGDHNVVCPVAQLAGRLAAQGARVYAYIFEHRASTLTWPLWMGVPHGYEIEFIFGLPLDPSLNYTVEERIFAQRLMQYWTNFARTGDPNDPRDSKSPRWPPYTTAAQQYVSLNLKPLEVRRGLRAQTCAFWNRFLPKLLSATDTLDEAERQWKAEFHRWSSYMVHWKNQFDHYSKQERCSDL

[2] = target: T1, Acetylcholinesterase (Rattus norvegicus); experiment: Reversible inhibition of rat cortical AChE up to 8 mins
[3] = target: Acetylcholinesterase (Homo sapiens, UniProt P22303); experiment: Inhibition of AChE (unknown origin) using acetylthiocholine iodide as substrate after 8 mins by Ellman's spectrophotometric method
Acetylcholinesterase (Homo sapiens, UniProt P22303), sequence (P22303 whole entry): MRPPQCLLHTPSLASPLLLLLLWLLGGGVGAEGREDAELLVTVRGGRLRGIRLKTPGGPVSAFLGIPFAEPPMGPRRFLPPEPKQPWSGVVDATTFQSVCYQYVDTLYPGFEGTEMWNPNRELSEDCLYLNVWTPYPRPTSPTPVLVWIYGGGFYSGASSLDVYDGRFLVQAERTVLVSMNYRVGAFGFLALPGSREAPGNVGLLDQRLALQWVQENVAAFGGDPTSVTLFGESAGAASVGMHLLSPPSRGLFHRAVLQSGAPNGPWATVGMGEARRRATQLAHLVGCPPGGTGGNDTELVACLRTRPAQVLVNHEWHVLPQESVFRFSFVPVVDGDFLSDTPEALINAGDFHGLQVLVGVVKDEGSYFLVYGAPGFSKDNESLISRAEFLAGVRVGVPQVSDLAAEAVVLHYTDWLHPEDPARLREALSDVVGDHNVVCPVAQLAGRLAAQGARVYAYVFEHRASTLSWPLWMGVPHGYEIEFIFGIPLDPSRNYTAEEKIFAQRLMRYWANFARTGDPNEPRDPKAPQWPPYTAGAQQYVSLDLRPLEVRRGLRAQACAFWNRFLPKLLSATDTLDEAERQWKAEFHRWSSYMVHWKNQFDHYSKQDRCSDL

[4] = Neuroprotective activity in human SH-SY5Y cells assessed as protection against H2O2-induced reduction of cell viability at 10 uM treated 2 hrs before H2O2 addition measured after 24 hrs by MTT assay relative to H2O2 treated control; format: functional, cell-based
[5] = Neuroprotective activity in human SH-SY5Y cells assessed as protection against H2O2-induced reduction of cell viability at 10 uM treated 2 hrs before H2O2 addition measured after 24 hrs by MTT assay relative to control; format: functional, cell-based
[6] = Neuroprotective activity in human SH-SY5Y cells assessed as protection against H2O2-induced reduction of cell viability at 1 uM treated 2 hrs before H2O2 addition measured after 24 hrs by MTT assay relative to control; format: functional, cell-based
[7] = target: T2, Acetylcholinesterase (Mus musculus, UniProt P21836); experiment: Inhibition of mouse skeletal AChE
T2 sequence (P21836 whole entry): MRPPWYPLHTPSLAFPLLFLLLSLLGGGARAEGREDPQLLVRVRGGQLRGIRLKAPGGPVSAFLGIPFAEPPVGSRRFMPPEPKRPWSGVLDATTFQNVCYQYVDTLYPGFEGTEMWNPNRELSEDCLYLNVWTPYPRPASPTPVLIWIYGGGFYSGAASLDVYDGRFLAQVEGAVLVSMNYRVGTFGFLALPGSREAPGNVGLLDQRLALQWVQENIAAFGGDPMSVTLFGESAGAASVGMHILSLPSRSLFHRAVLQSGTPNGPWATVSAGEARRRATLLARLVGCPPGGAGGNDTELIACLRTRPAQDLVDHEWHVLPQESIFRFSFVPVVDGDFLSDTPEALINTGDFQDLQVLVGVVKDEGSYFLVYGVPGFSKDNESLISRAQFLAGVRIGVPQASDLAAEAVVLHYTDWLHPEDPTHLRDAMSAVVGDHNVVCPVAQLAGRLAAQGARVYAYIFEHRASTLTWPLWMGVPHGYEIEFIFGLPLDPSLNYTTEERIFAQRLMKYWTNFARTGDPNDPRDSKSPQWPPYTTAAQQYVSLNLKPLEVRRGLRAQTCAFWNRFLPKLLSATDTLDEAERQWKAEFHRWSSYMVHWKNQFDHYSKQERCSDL

[8] = Neuroprotective activity in human SH-SY5Y cells assessed as protection against H2O2-induced reduction of cell viability at 100 uM treated 2 hrs before H2O2 addition measured after 24 hrs by MTT assay relative to H2O2 treated control; format: functional, cell-based
[9] = Neuroprotective activity in human SH-SY5Y cells assessed as protection against H2O2-induced reduction of cell viability at 100 uM treated 2 hrs before H2O2 addition measured after 24 hrs by MTT assay relative to control; format: functional, cell-based

| SMILES | inhibition [1] | inhibition [2] | IC50 [3] [µM] | further results |
| --- | --- | --- | --- | --- |
| C=C[C@@H]1[C@H]2C=C(C)C[C@]1(N)c1ccc(=O)[nH]c1C2 | Active | Active |  |  |
| CC1=C[C@H]2Cc3[nH]c(=O)ccc3[C@@]3(C1)[C@@H]2[C@H](Cl)CCN3C | Active | Active | 20.9 |  |
| C=C[C@@H]1[C@@H]2Cc3[nH]c(=O)ccc3[C@@]1(N)C[C@H](C)C2 |  |  |  | Activity [4]: 12%; Activity [5]: 55.5%; Activity [6]: 49.1% |
| CC1=C[C@H]2Cc3[nH]c(=O)ccc3[C@@]3(C1)[C@@H]2[C@H](C)CN3C |  | Active | 12.1 |  |
| C=C[C@@H]1[C@H]2C=C(C)C[C@]1(NC)c1ccc(=O)[nH]c1C2 | Active | Active | 15 | IC50 [7]: 2000 nM |
| CC(=O)N[C@@H](CS)C(=O)O |  |  |  | Activity [8]: 12.3%; Activity [9]: 55.8% |
